{"source": "the OligoGym collection", "note": "These antisense oligonucleotides have a phosphorothioate backbone; sugars and methylation of C are not fully specified. Further: test concentration or dose not given here.", "data": [{"molecular_target": "TNFRSF1A", "details": "ASO", "values": [{"sequence": "AGTAGGTTCCTTTGTGGC", "remaining target (mRNA or protein) (fraction of control)": 0.54}, {"sequence": "AGCGGCAGCAGCAGGTCA", "remaining target (mRNA or protein) (fraction of control)": "≥ 1"}, {"sequence": "TCCGTGCTCGCCCCTGCC", "remaining target (mRNA or protein) (fraction of control)": 0.81}, {"sequence": "GCAGCAGCAGGTCAGGCA", "remaining target (mRNA or protein) (fraction of control)": 0.63}, {"sequence": "CTACAGGAGACACACTCG", "remaining target (mRNA or protein) (fraction of control)": 0.72}, {"sequence": "GGTTTTCTGAAGCGGTGA", "remaining target (mRNA or protein) (fraction of control)": 0.83}, {"sequence": "CAAAGACCAAAGAAAATG", "remaining target (mRNA or protein) (fraction of control)": 0.71}, {"sequence": "GTCTGAGGTGGTTTTCTG", "remaining target (mRNA or protein) (fraction of control)": 0.66}, {"sequence": "CGCAAACCACCCACTCAG", "remaining target (mRNA or protein) (fraction of control)": 0.49}, {"sequence": "GTCCAGGCAGAGGGCACA", "remaining target (mRNA or protein) (fraction of control)": 0.79}, {"sequence": "GGTTGAGACTCGGGCATA", "remaining target (mRNA or protein) (fraction of control)": 0.6}, {"sequence": "TGAGGGTTGAGACTCGGG", "remaining target (mRNA or protein) (fraction of control)": 0.98}, {"sequence": "AGGCCCCATTGTTCCGTG", "remaining target (mRNA or protein) (fraction of control)": "≥ 1"}, {"sequence": "ATCCTCGCAAACCACCCA", "remaining target (mRNA or protein) (fraction of control)": 0.71}, {"sequence": "GCTTGTCCAGGCAGAGGG", "remaining target (mRNA or protein) (fraction of control)": 0.82}, {"sequence": "GTGCCACCTCTCTGCGGG", "remaining target (mRNA or protein) (fraction of control)": "≥ 1"}, {"sequence": "CACCTGACCCATTTCCTT", "remaining target (mRNA or protein) (fraction of control)": 0.54}, {"sequence": "GTCAGGCACGGTGGAGAG", "remaining target (mRNA or protein) (fraction of control)": "≥ 1"}]}, {"molecular_target": "TFRC", "details": "ASO", "values": [{"sequence": "TTCTCCACCAAACAAGTT", "remaining target (mRNA or protein) (fraction of control)": "≥ 1"}, {"sequence": "CGGTTCCTGCCAGTCTCT", "remaining target (mRNA or protein) (fraction of control)": 0.54}, {"sequence": "CACTTTGTTCAACTCAGG", "remaining target (mRNA or protein) (fraction of control)": "≥ 1"}, {"sequence": "TATCTGAGAACATCTGGG", "remaining target (mRNA or protein) (fraction of control)": "≥ 1"}, {"sequence": "AGGAAACCTGCTACATTC", "remaining target (mRNA or protein) (fraction of control)": "≥ 1"}, {"sequence": "TTTGGCTGACGGCTGTTT", "remaining target (mRNA or protein) (fraction of control)": 0.39}, {"sequence": "CATTCTGAACTGCCACAC", "remaining target (mRNA or protein) (fraction of control)": 0.62}, {"sequence": "CAACCCTAACTGTAGAAA", "remaining target (mRNA or protein) (fraction of control)": "≥ 1"}, {"sequence": "CCTCCGTCCCGAGCCGCC", "remaining target (mRNA or protein) (fraction of control)": 0.43}, {"sequence": "TTGGCTTCTGGTCCCCTC", "remaining target (mRNA or protein) (fraction of control)": 0.38}, {"sequence": "AAACCTTGAAGTTGCTGG", "remaining target (mRNA or protein) (fraction of control)": 0.93}, {"sequence": "TTTAACATCAGGTTTTGT", "remaining target (mRNA or protein) (fraction of control)": "≥ 1"}, {"sequence": "ATCTCAGTGCCAAAAGGA", "remaining target (mRNA or protein) (fraction of control)": "≥ 1"}, {"sequence": "AATTATGGGAAACACTGT", "remaining target (mRNA or protein) (fraction of control)": "≥ 1"}, {"sequence": "AAGCTGCTGCCTAAAGAC", "remaining target (mRNA or protein) (fraction of control)": "≥ 1"}, {"sequence": "TATGATGGTTCACTCACG", "remaining target (mRNA or protein) (fraction of control)": "≥ 1"}, {"sequence": "TATACCTTTACCTCCAAA", "remaining target (mRNA or protein) (fraction of control)": 0.99}, {"sequence": "CCAATCATAAATCCAATC", "remaining target (mRNA or protein) (fraction of control)": "≥ 1"}, {"sequence": "CGGATGCTTCACATTTTG", "remaining target (mRNA or protein) (fraction of control)": "≥ 1"}, {"sequence": "GGGTTTTATTAGCAGATG", "remaining target (mRNA or protein) (fraction of control)": "≥ 1"}, {"sequence": "GTTGTTAGTCTGGAAGTA", "remaining target (mRNA or protein) (fraction of control)": 0.9}, {"sequence": "ACGCCAGACTTTGCTGAG", "remaining target (mRNA or protein) (fraction of control)": 0.38}, {"sequence": "TATTGTCAGCATTTTCTT", "remaining target (mRNA or protein) (fraction of control)": "≥ 1"}, {"sequence": "CCGAGATGGTGGAAACTG", "remaining target (mRNA or protein) (fraction of control)": "≥ 1"}, {"sequence": "CTGGCTCCTCCCTCACTG", "remaining target (mRNA or protein) (fraction of control)": 0.75}, {"sequence": "CGCTTTCCCGCTCCCCGT", "remaining target (mRNA or protein) (fraction of control)": "≥ 1"}, {"sequence": "AGAGGCAGTTCCCATTAC", "remaining target (mRNA or protein) (fraction of control)": 0.46}, {"sequence": "TGGTGCTGGTGAAGTCTG", "remaining target (mRNA or protein) (fraction of control)": "≥ 1"}, {"sequence": "CACCCGAACCAGGAATCT", "remaining target (mRNA or protein) (fraction of control)": "≥ 1"}, {"sequence": "GAAGCCCGCACTCACACT", "remaining target (mRNA or protein) (fraction of control)": 0.8}, {"sequence": "TACCCAAATAAGGATAAT", "remaining target (mRNA or protein) (fraction of control)": "≥ 1"}, {"sequence": "TTTAAGTCAAAAGGTCAA", "remaining target (mRNA or protein) (fraction of control)": "≥ 1"}, {"sequence": "CACGAGGGTCGGTGTAGT", "remaining target (mRNA or protein) (fraction of control)": "≥ 1"}, {"sequence": "GGTTTCTGAACAGCGTTT", "remaining target (mRNA or protein) (fraction of control)": "≥ 1"}, {"sequence": "AGCTATGGGTATCACATT", "remaining target (mRNA or protein) (fraction of control)": "≥ 1"}, {"sequence": "AGTCCAAGATAAAAGAGG", "remaining target (mRNA or protein) (fraction of control)": "≥ 1"}, {"sequence": "CACAGCAATAGTCCCATA", "remaining target (mRNA or protein) (fraction of control)": 0.67}, {"sequence": "TCAACATACAACGCAAGA", "remaining target (mRNA or protein) (fraction of control)": 0.65}, {"sequence": "GTGACACATTCAAGTGAG", "remaining target (mRNA or protein) (fraction of control)": "≥ 1"}, {"sequence": "TTGGTTTTGTGACATTGG", "remaining target (mRNA or protein) (fraction of control)": 0.92}, {"sequence": "TCAACCTGGTATCTCCTA", "remaining target (mRNA or protein) (fraction of control)": 0.65}, {"sequence": "AAACAAGTCTACCGTTCT", "remaining target (mRNA or protein) (fraction of control)": "≥ 1"}, {"sequence": "TTTAGCATCAAATGAAGT", "remaining target (mRNA or protein) (fraction of control)": "≥ 1"}, {"sequence": "ATTCTTGCTTTCTGAGGT", "remaining target (mRNA or protein) (fraction of control)": "≥ 1"}, {"sequence": "TCCAGGTGTGTAAGGGTC", "remaining target (mRNA or protein) (fraction of control)": "≥ 1"}, {"sequence": "CAGCCCCGCAGGATGAAG", "remaining target (mRNA or protein) (fraction of control)": "≥ 1"}, {"sequence": "CAAAGTAAGCGAACCACT", "remaining target (mRNA or protein) (fraction of control)": "≥ 1"}, {"sequence": "CCCTGCTCTGACAATCAC", "remaining target (mRNA or protein) (fraction of control)": 0.9}, {"sequence": "TAGAGTCTGTTTTCCAGT", "remaining target (mRNA or protein) (fraction of control)": "≥ 1"}, {"sequence": "CCACGAGCAGAATACAGC", "remaining target (mRNA or protein) (fraction of control)": "≥ 1"}, {"sequence": "TTAACAACAACAGGAAAG", "remaining target (mRNA or protein) (fraction of control)": "≥ 1"}, {"sequence": "GTCTCCAGCACTCCAACT", "remaining target (mRNA or protein) (fraction of control)": "≥ 1"}, {"sequence": "CAGCAAGTTTCATCTCCA", "remaining target (mRNA or protein) (fraction of control)": 0.83}, {"sequence": "TTACCCACCCAATGCTTA", "remaining target (mRNA or protein) (fraction of control)": 0.89}, {"sequence": "ACTGACCAGCGACCTCTG", "remaining target (mRNA or protein) (fraction of control)": 0.58}, {"sequence": "AGACCAGCCCTTAGGATT", "remaining target (mRNA or protein) (fraction of control)": 0.56}, {"sequence": "ATTCTTATCTGGTCAGTG", "remaining target (mRNA or protein) (fraction of control)": "≥ 1"}, {"sequence": "ATTAAGTAGAGGACCTGG", "remaining target (mRNA or protein) (fraction of control)": 0.66}, {"sequence": "GTCTGTTTTCTCAGCATT", "remaining target (mRNA or protein) (fraction of control)": "≥ 1"}, {"sequence": "TCAAGTTCTCCAGTAAAG", "remaining target (mRNA or protein) (fraction of control)": "≥ 1"}, {"sequence": "TTCTTTCAGGAATGAGGA", "remaining target (mRNA or protein) (fraction of control)": 0.96}, {"sequence": "TGGGCAAGTTTCAATAGG", "remaining target (mRNA or protein) (fraction of control)": "≥ 1"}, {"sequence": "TTAATAACTCCAAAGATG", "remaining target (mRNA or protein) (fraction of control)": "≥ 1"}, {"sequence": "GAACTAAATGGAGGCTTA", "remaining target (mRNA or protein) (fraction of control)": "≥ 1"}, {"sequence": "TTACAACCTTCAGCAGAG", "remaining target (mRNA or protein) (fraction of control)": "≥ 1"}, {"sequence": "GGAAAGGGAAAGCAGCAT", "remaining target (mRNA or protein) (fraction of control)": 0.95}, {"sequence": "AGATCCCTCACAAATGAA", "remaining target (mRNA or protein) (fraction of control)": "≥ 1"}, {"sequence": "CATGTCCAAAGAATGAAA", "remaining target (mRNA or protein) (fraction of control)": 0.95}, {"sequence": "ATAGCAGATACTTCCACT", "remaining target (mRNA or protein) (fraction of control)": 0.96}, {"sequence": "GTTATCGCCATCTACTTG", "remaining target (mRNA or protein) (fraction of control)": "≥ 1"}, {"sequence": "GCGGCTCCCTATGGCTGC", "remaining target (mRNA or protein) (fraction of control)": "≥ 1"}, {"sequence": "AACTGGTTCTCTTTCAAT", "remaining target (mRNA or protein) (fraction of control)": 0.95}, {"sequence": "ACACTGCTCCCGATAATG", "remaining target (mRNA or protein) (fraction of control)": "≥ 1"}, {"sequence": "CTACCCCTTTACAATAGC", "remaining target (mRNA or protein) (fraction of control)": 0.96}, {"sequence": "CTCCGACAACTTTCTCTT", "remaining target (mRNA or protein) (fraction of control)": "≥ 1"}, {"sequence": "CTCATTGGCAAGAAAACA", "remaining target (mRNA or protein) (fraction of control)": 0.94}, {"sequence": "CCGCCACAGCCCCTTCCC", "remaining target (mRNA or protein) (fraction of control)": 0.95}, {"sequence": "CTCTGGAGATTGTCTGGA", "remaining target (mRNA or protein) (fraction of control)": 0.76}, {"sequence": "TACACCTTGGATAAACTG", "remaining target (mRNA or protein) (fraction of control)": 0.93}, {"sequence": "TCATTTTATCCAGCAGAA", "remaining target (mRNA or protein) (fraction of control)": 0.79}, {"sequence": "GGAAACTGAGTGTGATTG", "remaining target (mRNA or protein) (fraction of control)": "≥ 1"}, {"sequence": "ATATTGAGCCTGTTAGCA", "remaining target (mRNA or protein) (fraction of control)": 0.95}, {"sequence": "CTGTGCTGTCCAGTTTCT", "remaining target (mRNA or protein) (fraction of control)": 0.9}]}]}
